Laboratory results published in US10280171B2, “Heterocyclic inhibitors of PTPN11” (priority 2016, dated 2019).

Legend:
[1] = tested on: Phospho-ERK levels in KYSE-520 cells; assay: pERK AlphaScreen Protocol; type: cell-based; conditions: Homo sapiens, KYSE-520, 2 h, KYSE-520 cells, 2 hr compound incubation, phospho-ERK1/2 AlphaScreen SureFire; read-out: PERK Avg IC50
Procedure: KYSE-520 cells (10 k cells/well) were grown in 384-well plate in 20 uL of medium (RPMI-1640, without phenol red, containing 10% FBS) at 37° C. with 5% CO2 overnight. DMSO (control) or increasing concentrations of compounds were diluted in medium, added to the 384-well plate (5 uL/well, final DMSO concentration of 1%), and cells were then incubated with compounds for 2 hr. Phospho-ERK levels were measured using phospho-ERK1/2 AlphaScreen SureFire (PerkinElmer, TGRESB10K) following manufacturer's recommendations. Dose-response curves were analyzed using IC50 regression curve fitting (GeneData Screener). Curves were normalized to a high control without inhibitor (DMSO only), and low control (1 μM selumetinib).

[2] = biological target: PTPN11-E76K mutant enzyme (Homo sapiens (Human), UniProt Q06124, E76K); assay: PTPN11 Enzymatic Assay (DiFMUP phosphatase activity); type: biochemical; conditions: full length PTPN11-E76K mutant enzyme 250 pM, DiFMUP 50 μM, 30 min preincubation; read-out: PTPN11-E76K Avg IC50
PTPN11-E76K mutant enzyme, sequence (Q06124 whole entry E76K): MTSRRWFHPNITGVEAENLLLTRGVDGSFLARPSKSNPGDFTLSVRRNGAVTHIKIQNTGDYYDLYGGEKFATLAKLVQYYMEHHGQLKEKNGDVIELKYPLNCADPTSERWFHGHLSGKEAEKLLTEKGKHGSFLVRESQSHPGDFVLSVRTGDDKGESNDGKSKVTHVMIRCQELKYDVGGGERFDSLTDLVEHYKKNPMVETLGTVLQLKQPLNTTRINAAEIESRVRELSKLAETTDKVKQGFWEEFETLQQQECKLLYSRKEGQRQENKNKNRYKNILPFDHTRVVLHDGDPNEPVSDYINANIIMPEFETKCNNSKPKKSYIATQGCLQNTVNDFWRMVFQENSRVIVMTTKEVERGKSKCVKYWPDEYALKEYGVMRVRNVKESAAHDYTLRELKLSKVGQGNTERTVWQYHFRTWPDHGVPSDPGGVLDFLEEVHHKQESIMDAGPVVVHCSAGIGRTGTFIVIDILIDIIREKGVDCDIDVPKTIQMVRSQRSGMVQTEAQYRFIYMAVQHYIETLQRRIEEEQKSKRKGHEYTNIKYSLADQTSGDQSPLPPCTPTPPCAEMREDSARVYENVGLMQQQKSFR
Procedure: Reaction was initiated by addition of DiFMUP (50 μM) at room temperature in 384-well black plate with a final reaction volume of 20 uL in assay buffer. […] Dose-response curves were analyzed using IC50 regression curve fitting (GeneData Screener). Curves were normalized to a high controls without inhibitor, and low controls without enzyme.

| SMILES | IC50 [1] [nM] | IC50 [2] [nM] |
| --- | --- | --- |
| CC1(CN)CCN(c2cnc3c(-c4ccccc4Cl)n[nH]c3n2)CC1 [Example 29] | 87 | 178 |
| CCC1(N)CCN(c2cnc3c(-c4ccnc(N)c4Cl)n[nH]c3n2)CC1 [Example 135, 4-[6-(4-amino-4-ethylpiperidin-1-yl)-1H-pyrazolo[3,4-b]-pyrazin-3-yl]-3-chloropyridin-2-amine] | 122 | 529 |
| Nc1nccc(-c2n[nH]c3nc(N4CCC(N)(CO)CC4)cnc23)c1Cl [Example 119, (4-Amino-1-(3-(2-amino-3-chloropyridin-4-yl)-1H-pyrazolo[3,4-b]pyrazin-6-yl)-piperidin-4-yl)methanol] | 1730 | 422 |
| CC1(N)CCN(c2cnc3c(-c4cccc(Cl)c4)n[nH]c3n2)CC1 [Example 10, 1-(3-(3-chloro-phenyl)-1H-pyrazolo[3,4-b]-pyrazin-6-yl)-4-methylpiperidin-4-amine] | 172 | 333 |
| N[C@@H]1CCCC12CCN(c1cnc3c(-c4ccc(F)c(Cl)c4)n[nH]c3n1)CC2 [Example 47, (R)-8-(3-(3-chloro-4-fluorophenyl)-1H-pyrazolo[3,4-b]-pyrazin-6-yl)-8-aza-spiro[4.5]decan-1-amine] | 343 | 493 |
| Clc1cccc(-c2n[nH]c3nc(N4CCC5(CCN5)CC4)cnc23)c1Cl [Example 7, 3-(2,3-dichloro-phenyl)-6-(1,7-diaza-spiro[3.5]nonan-7-yl)-1H-pyrazolo[3,4-b]pyrazine] | 79 | 196 |
| CC1(CN)CCN(c2cnc3c(-c4ccc(F)c(Cl)c4)n[nH]c3n2)CC1 [Example 14, (1-(3-(3-Chloro-4-fluorophenyl)-1H-pyrazolo[3,4-b]-pyrazin-6-yl)-4-methylpiperidin-4-yl) methanamine] | 569 | 521 |
| CC1(CN)CCN(c2cnc3c(-c4cccc(N)c4Cl)n[nH]c3n2)CC1 [Example 132, 3-{6-[4-(amino-methyl)-4-methyl-piperidin-1-yl]-1H-pyrazolo[3,4-b]-pyrazin-3-yl}-2-chloroaniline] | 63 | 119 |
| CC1(N)CCN(c2cnc3c(-c4cc(N)ncc4Cl)n[nH]c3n2)CC1 [Example 138, 4-[6-(4-amino-4-methylpiperidin-1-yl)-1H-pyrazolo[3,4-b]pyrazin-3-yl]-5-chloropyridin-2-amine] | 406 | 587 |
| CC1(N)CCN(c2cnc3c(-c4ccc(F)c(Cl)c4)n[nH]c3n2)CC1 [Example 19, 1-(3-(3-Chloro-4-fluorophenyl)-1H-pyrazolo[3,4-b]-pyrazin-6-yl)-4-methylpiperidin-4-amine] | 534 | 510 |
| CC1(N)CCN(c2cnc3c(-c4cn[nH]c4C(F)(F)F)n[nH]c3n2)CC1 [Example 101, 4-Methyl-1-(3-(5-(trifluoromethyl)-1H-pyrazol-4-yl)-1H-pyrazolo[3,4-b]pyrazin-6-yl)-piperidin-4-amine] | 638 | 1890 |
| CC1(CN)CCN(c2cnc3c(-c4cccc(Cl)c4F)n[nH]c3n2)CC1 [Example 25, (1-(3-(3-Chloro-2-fluorophenyl)-1H-pyrazolo[3,4-b]pyrazin-6-yl)-4-methylpiperidin-4-yl)-methanamine] | 47 | 101 |
| Nc1cc(-c2n[nH]c3nc(N4CCC5(CCC[C@H]5N)CC4)cnc23)c(Cl)cn1 [Example 125, (R)-8-(3-(2-amino-5-chloropyridin-4-yl)-1H-pyrazolo[3,4-b]pyrazin-6-yl)-8-azaspiro[4.5]decan-1-amine] | 429 | 509 |
| N[C@@H]1CCCC12CCN(c1cnc3c(-c4cn[nH]c4C(F)(F)F)n[nH]c3n1)CC2 [Example 102, (R)-8-(3-(5-(Trifluoromethyl)-1H-pyrazol-4-yl)-1H-pyrazolo[3,4-b]pyrazin-6-yl)-8-azaspiro[4.5]decan-1-amine] | 1180 | 2150 |
